Experimental data taken from the supplement of paper PMC10307832.

Tests used:
Experiment in all cases: relative viability (nuclei count vs DMSO), 5 days (fraction); higher = more cells survive
[1] = compound: CN(c1ncccc1CNc1nc(Nc2ccc3c(c2)CC(=O)N3)ncc1C(F)(F)F)S(C)(=O)=O + CC(=O)Nc1cccc(-n2c(=O)n(C3CC3)c(=O)c3c(Nc4ccc(I)cc4F)n(C)c(=O)c(C)c32)c1 [Trametinib] (partner 0.02 µM)
In short: (§1)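 Lung cancer cell lines in 1536-well plates got either a single drug or a fixed anchor-drug dose together with five library-drug doses (not always all listed) in √10 steps, by pin tool, on the day after seeding. Nuclei were counted after 5 days, and relative viability is the treated-to-vehicle ratio of nuclei counts. Values are medians of duplicate plates.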

[2] = compound: CN(c1ncccc1CNc1nc(Nc2ccc3c(c2)CC(=O)N3)ncc1C(F)(F)F)S(C)(=O)=O + CS(=O)(=O)CCNCc1ccc(-c2ccc3ncnc(Nc4ccc(OCc5cccc(F)c5)c(Cl)c4)c3c2)o1 [Lapatinib] (partner 2 µM)
In short: as §1

[3] = compound: CN(c1ncccc1CNc1nc(Nc2ccc3c(c2)CC(=O)N3)ncc1C(F)(F)F)S(C)(=O)=O + N=C(N)NC(=N)NCCc1ccccc1 [Phenformin] (partner 250 µM)
In short: as §1

[4] = compound: CN(c1ncccc1CNc1nc(Nc2ccc3c(c2)CC(=O)N3)ncc1C(F)(F)F)S(C)(=O)=O + O=C(c1cc(Cc2n[nH]c(=O)c3ccccc23)ccc1F)N1CCN(C(=O)C2CC2)CC1 [Olaparib] (partner 8 µM)
In short: as §1

Cell Line | relative viability ([1]; first compound 0.01 µM) | relative viability ([1]; first compound 0.03162 µM) | relative viability ([1]; first compound 0.1 µM) | relative viability ([1]; first compound 0.3162 µM) | relative viability ([1]; first compound 1 µM) | relative viability ([2]; first compound 0.01 µM) | relative viability ([2]; first compound 0.03162 µM) | relative viability ([2]; first compound 0.1 µM) | relative viability ([2]; first compound 0.3162 µM) | relative viability ([2]; first compound 1 µM) | relative viability ([3]; first compound 0.01 µM) | relative viability ([3]; first compound 0.03162 µM) | relative viability ([3]; first compound 0.1 µM) | relative viability ([3]; first compound 0.3162 µM) | relative viability ([3]; first compound 1 µM) | relative viability ([4]; first compound 0.01 µM) | relative viability ([4]; first compound 0.03162 µM) | relative viability ([4]; first compound 0.1 µM) | relative viability ([4]; first compound 0.3162 µM) | relative viability ([4]; first compound 1 µM)
COR-L 105 | 0.459 | 0.419 | 0.453 | 0.479 | 0.445 | 0.335 | 0.387 | 0.355 | 0.355 | 0.341 | 0.46 | 0.493 | 0.45 | 0.418 | 0.492 | 0.794 | 0.709 | 0.728 | 0.645 | 0.522
LK-2 | 0.897 | 0.973 | 0.679 | 0.73 | 0.601 | 1.16 | 1.21 | 1.02 | 0.984 | 1 | 0.376 | 0.386 | 0.63 | 0.517 | 0.532 | 0.807 | 0.846 | 0.615 | 0.639 | 0.542
NCI-H727 | 0.386 | 0.364 | 0.404 | 0.424 | 0.333 | 0.813 | 1.09 | 0.549 | 0.85 | 0.676 | 0.626 | 0.655 | 0.389 | 0.616 | 0.444 | 0.776 | 0.707 | 0.77 | 0.635 | 0.715
RERF-LC-KJ | 0.76 | 0.905 | 0.949 | 0.904 | 0.937 | 0.926 | 0.988 | 0.854 | 0.886 | 0.91 | 0.409 | 0.458 | 0.419 | 0.463 | 0.412 | 0.983 | 0.945 | 0.97 | 0.849 | 0.927
NCI-H2023 | 0.52 | 0.539 | 0.6 | 0.426 | 0.52 | 0.855 | 0.976 | 0.781 | 0.908 | 0.761 | 0.451 | 0.45 | 0.416 | 0.314 | 0.408 | 0.458 | 0.476 | 0.467 | 0.359 | 0.407
NCI-H322M | 0.432 | 0.518 | 0.522 | 0.479 | 0.51 | 0.585 | 0.675 | – | 0.596 | 0.653 | 0.88 | 0.828 | 0.827 | 0.89 | 0.875 | 0.741 | 0.774 | 0.739 | 0.878 | 0.832
NCI-H1666 | 0.902 | 0.853 | 0.762 | 0.838 | 0.658 | 0.678 | 0.624 | 0.611 | 0.546 | 0.493 | 0.524 | 0.621 | 0.514 | 0.508 | 0.384 | 0.671 | 0.755 | 0.702 | 0.744 | 0.706
SW 900 | 0.846 | 0.726 | 0.761 | 0.757 | 0.739 | – | – | – | – | – | 0.745 | 0.735 | 0.602 | 0.515 | 0.581 | 0.867 | 1.09 | 1.01 | 0.722 | 0.718
NCI-H2087 | 0.137 | 0.233 | 0.199 | 0.196 | 0.224 | 1.44 | 1.12 | 0.876 | 0.927 | 0.893 | 0.522 | 0.518 | 0.424 | 0.475 | 0.454 | 0.634 | 0.639 | 0.614 | 0.464 | 0.668
